Measured values as given in patent US7786137B2, “Bicyclic derivatives as modulators of ion channels” (Vertex Pharmaceuticals Incorporated, priority 2005, dated 2010).

biological target: NaV1.3 (Homo sapiens, UniProt Q9NY46); assay: VIPR optical membrane potential assay, NaV1.3 inhibition; format: cell-based; parameters: expressed in transfected cells; host or cells: HEK293; details: activity against NaV 1.3 channel
Experimental: Antagonist properties of test compounds were assessed as follows. Cells expressing the NaV of interest were placed into microtiter plates. After an incubation period, the cells were stained with fluorescent dyes sensitive to the transmembrane potential. The test compounds were added to the microtiter plate. The cells were stimulated with either a chemical or electrical means to evoke a NaV dependent membrane potential change from unblocked channels, which was detected and measured with trans-membrane potential-sensitive dyes. Antagonists were detected as a decreased membrane potential response to the stimulus.
The following is an example of how NaV1.3 inhibition activity is measured using the optical membrane potential method#2. Other subtypes are performed in an analogous mode in a cell line expressing the NaV of interest.
HEK293 cells stably expressing NaV1.3 are plated into 96-well microtiter plates. After an appropriate incubation period, the cells are stained with the voltage sensitive dyes CC2-DMPE/DiSBAC2(3) as follows.
2× CC2-DMPE=20 μM CC2-DMPE: 10 mM CC2-DMPE is vortexed with an equivalent volume of 10% pluronic, followed by vortexing in required amount of HBSS containing 10 mM HEPES. Each cell plate will require 5 mL of 2× CC2-DMPE. 50 μL of 2× CC2-DMPE is to wells containing washed cells, resulting in a 10 μM final staining concentration. The cells are stained for 30 minutes in the dark at RT.
2× DISBAC2(3) with ABSC1=6 μM DISBAC2(3) and 1 mM ABSC1: The required amount of 10 mM DISBAC2(3) is added to a 50 ml conical tube and mixed with 1 μL 10% pluronic for each mL of solution to be made and vortexed together. Then HBSS/HEPES is added to make up 2× solution. Finally, the ABSC1 is added.
The 2× DiSBAC2(3) solution can be used to solvate compound plates. Note that compound plates are made at 2× drug concentration. Wash stained plate again, leaving residual volume of 50 μL. Add 50 μL/well of the 2× DiSBAC2(3) w/ABSC1. Stain for 30 minutes in the dark at RT.
The instrument comprises a microtiter plate handler, an optical system for exciting the coumarin dye while simultaneously recording the coumarin and oxonol emissions, a waveform generator, a current- or voltage-controlled amplifier, and a device for inserting electrodes in well. Under integrated computer control, this instrument passes user-programmed electrical stimulus protocols to cells within the wells of the microfilter plate.
Insert or use electrodes into each well to be assayed.
Use the current-controlled amplifier to deliver stimulation wave pulses for 3 s. Two seconds of pre-stimulus recording are performed to obtain the un-stimulated intensities. Five seconds of post-stimulation recording are performed to examine the relaxation to the resting state.
Data are analyzed and reported as normalized ratios of background-subtracted emission intensities measured in the 460 nm and 580 nm channels. Background intensities are then subtracted from each assay channel. Background intensities are obtained by measuring the emission intensities during the same time periods from identically treated assay wells in which there are no cells. The response as a function of time is then reported as the ratios obtained using the following formula: […]
The data is further reduced by calculating the initial (Ri) and final (Rf) ratios. These are the average ratio values during part or all of the pre-stimulation period, and during sample points during the stimulation period. The response to the stimulus ? =Rf/Ri is then calculated.
Control responses are obtained by performing assays in the presence of a compound with the desired properties (positive control), such as tetracaine, and in the absence of pharmacological agents (negative control). Responses to the negative (N) and positive (P) controls are calculated as above. The compound antagonist activity A is defined as:
[formula] where R is the ratio response of the test compound.

NaV1.3, sequence (Q9NY46 whole entry): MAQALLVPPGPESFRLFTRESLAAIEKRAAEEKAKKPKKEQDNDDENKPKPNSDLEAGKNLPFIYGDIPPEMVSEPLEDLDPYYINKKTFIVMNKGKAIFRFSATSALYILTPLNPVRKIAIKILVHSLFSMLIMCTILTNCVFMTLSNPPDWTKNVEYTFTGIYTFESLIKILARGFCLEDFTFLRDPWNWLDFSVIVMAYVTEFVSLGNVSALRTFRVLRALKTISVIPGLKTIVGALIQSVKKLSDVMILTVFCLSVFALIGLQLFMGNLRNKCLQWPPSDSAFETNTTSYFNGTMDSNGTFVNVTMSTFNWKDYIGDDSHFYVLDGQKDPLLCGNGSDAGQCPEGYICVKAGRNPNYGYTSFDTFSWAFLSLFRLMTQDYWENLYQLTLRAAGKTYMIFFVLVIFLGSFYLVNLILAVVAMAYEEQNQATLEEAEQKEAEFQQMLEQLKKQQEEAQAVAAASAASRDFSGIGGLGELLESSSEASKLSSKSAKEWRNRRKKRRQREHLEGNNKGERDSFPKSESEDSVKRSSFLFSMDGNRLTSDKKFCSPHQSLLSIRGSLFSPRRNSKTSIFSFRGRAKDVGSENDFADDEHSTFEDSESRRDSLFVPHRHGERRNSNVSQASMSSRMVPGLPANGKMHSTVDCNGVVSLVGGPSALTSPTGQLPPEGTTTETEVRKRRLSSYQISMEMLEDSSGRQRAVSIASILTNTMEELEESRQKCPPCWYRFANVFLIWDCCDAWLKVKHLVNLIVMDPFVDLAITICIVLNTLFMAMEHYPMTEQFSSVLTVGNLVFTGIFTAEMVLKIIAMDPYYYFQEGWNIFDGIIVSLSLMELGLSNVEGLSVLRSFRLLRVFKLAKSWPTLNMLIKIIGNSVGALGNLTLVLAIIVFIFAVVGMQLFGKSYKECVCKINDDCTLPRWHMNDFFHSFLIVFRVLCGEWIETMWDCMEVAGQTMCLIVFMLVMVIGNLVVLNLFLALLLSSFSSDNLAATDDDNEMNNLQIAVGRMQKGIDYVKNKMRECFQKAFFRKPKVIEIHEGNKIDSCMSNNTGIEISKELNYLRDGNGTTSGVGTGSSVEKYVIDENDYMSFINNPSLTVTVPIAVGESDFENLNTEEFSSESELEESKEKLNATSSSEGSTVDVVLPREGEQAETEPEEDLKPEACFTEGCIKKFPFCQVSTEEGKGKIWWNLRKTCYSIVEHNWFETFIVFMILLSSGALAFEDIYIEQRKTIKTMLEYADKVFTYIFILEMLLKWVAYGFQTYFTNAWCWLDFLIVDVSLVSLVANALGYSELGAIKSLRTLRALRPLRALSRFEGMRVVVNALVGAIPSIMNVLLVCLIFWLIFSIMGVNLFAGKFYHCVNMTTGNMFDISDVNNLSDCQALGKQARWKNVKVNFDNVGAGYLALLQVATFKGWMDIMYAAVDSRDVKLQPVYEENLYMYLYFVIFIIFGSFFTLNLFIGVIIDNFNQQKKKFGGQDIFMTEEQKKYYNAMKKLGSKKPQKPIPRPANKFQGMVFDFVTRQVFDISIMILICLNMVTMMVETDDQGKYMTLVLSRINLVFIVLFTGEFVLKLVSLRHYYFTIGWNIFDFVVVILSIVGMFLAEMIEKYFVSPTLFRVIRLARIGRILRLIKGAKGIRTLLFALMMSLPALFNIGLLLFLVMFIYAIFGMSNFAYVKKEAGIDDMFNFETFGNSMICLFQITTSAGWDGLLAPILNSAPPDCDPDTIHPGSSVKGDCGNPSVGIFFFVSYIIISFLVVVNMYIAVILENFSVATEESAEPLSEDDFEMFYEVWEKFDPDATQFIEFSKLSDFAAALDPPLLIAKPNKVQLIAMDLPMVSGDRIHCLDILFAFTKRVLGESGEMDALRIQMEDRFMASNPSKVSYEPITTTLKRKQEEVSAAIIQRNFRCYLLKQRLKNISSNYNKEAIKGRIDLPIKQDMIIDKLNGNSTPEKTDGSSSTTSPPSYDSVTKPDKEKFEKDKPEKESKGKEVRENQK

First: C[C@@H](C(=O)N1CCc2cc(S(=O)(=O)Nc3ncns3)ccc21)n1ccc2ccccc21 [Compound 130]
Second: C[C@@H](C(=O)N1CCc2cc(S(=O)(=O)Nc3ncns3)ccc21)n1ccc2c(F)cccc21 [Compound 142]
The IC50 of the first is higher: greater than 5 µM for the first, less than 2 µM for the second.

`O=C(COc1cccc(Cl)c1)N1CCc2cc(S(=O)(=O)Nc3nccs3)ccc21` [Compound 131] and `Cc1ccc(OCC(=O)N2CCc3cc(S(=O)(=O)Nc4nccs4)ccc32)cc1` [Compound 181] cannot be ordered by IC50: less than 2 µM for the first, less than 2 µM for the second.

First: O=C(c1ccc(C(F)(F)F)cc1)N1CCCc2cc(S(=O)(=O)Nc3nccs3)ccc21 [Compound 132]
Second: O=C(c1ccc(C(F)(F)F)cc1)N1CCc2cc(S(=O)(=O)Nc3nccs3)ccc21 [Compound 166]
The IC50 of the first is higher: 2 to 5 µM for the first, less than 2 µM for the second. The second is the more potent here.

First: O=C(CN1CCCc2cc(Cl)ccc21)N1CCc2cc(S(=O)(=O)Nc3ccncn3)ccc21 [Compound 133]
Second: O=C(CCn1ccc2cc(Cl)ccc21)N1CCc2cc(S(=O)(=O)Nc3ncns3)ccc21 [Compound 172]
The IC50 of the first is higher: greater than 5 µM for the first, less than 2 µM for the second. The second is the more potent here.

`Cc1ccccc1OCC(=O)N1CCc2cc(S(=O)(=O)Nc3nccs3)ccc21` [Compound 134] and `Cc1cccc(C)c1OCC(=O)N1CCc2cc(S(=O)(=O)Nc3nccs3)ccc21` [Compound 138] cannot be ordered by IC50: less than 2 µM for the first, less than 2 µM for the second.

First: CCc1nnc(NS(=O)(=O)c2ccc3c(c2)CN(C(=O)[C@@H](C)N2CCCc4cc(Cl)ccc42)C3)s1 [Compound 135]
Second: C[C@H](C(=O)N1Cc2ccc(S(=O)(=O)Nc3ccc(Cl)nn3)cc2C1)N1CCCc2cc(Cl)ccc21 [Compound 146]
The IC50 of the first is lower: 2 to 5 µM for the first, greater than 5 µM for the second.

`O=C(Cc1c(Cl)cccc1Cl)N1CCc2cc(S(=O)(=O)Nc3nccs3)ccc21` [Compound 136] and `O=C(Cc1ccccc1)N1CCc2cc(S(=O)(=O)Nc3nccs3)ccc21` [Compound 188] cannot be ordered by IC50: less than 2 µM for the first, less than 2 µM for the second.

Compared with `O=C(CN1CCc2ccc(F)cc2C1)N1CCc2cc(S(=O)(=O)Nc3nccs3)ccc21` [Compound 137], `O=C(CN1CCC(F)(F)CC1)N1CCc2cc(S(=O)(=O)Nc3nccs3)ccc21` [Compound 153] is higher in IC50: less than 2 µM for the first, greater than 5 µM for the second.

`CC(C)(C)c1ccc(OCC(=O)N2CCCc3cc(S(=O)(=O)Nc4ncns4)ccc32)cc1` [Compound 139] and `O=C(COc1ccc(Cl)cc1)N1CCc2cc(S(=O)(=O)Nc3ncns3)ccc21` [Compound 147] cannot be ordered by IC50: less than 2 µM for the first, less than 2 µM for the second.

`O=C(COc1ccnc2c(C(F)(F)F)cccc12)N1CCc2ccc(S(=O)(=O)Nc3nccs3)cc2C1` [Compound 140] and `O=C(COc1ccnc2c(C(F)(F)F)cccc12)N1CCc2cc(S(=O)(=O)Nc3nccs3)ccc21` [Compound 194] cannot be ordered by IC50: less than 2 µM for the first, less than 2 µM for the second.

Compared with `CC(Oc1ccc(OC(F)(F)F)cc1)C(=O)N1CCc2ccc(S(=O)(=O)Nc3nccs3)cc2C1` (stereo not drawn) [Compound 141], `CC(Oc1ccc(OC(F)(F)F)cc1)C(=O)N1Cc2ccc(S(=O)(=O)Nc3nccs3)cc2C1` (stereo not drawn) [Compound 186] is lower in IC50: greater than 5 µM for the first, less than 2 µM for the second.

Compared with `O=C(CNc1ccccc1F)N1CCc2cc(S(=O)(=O)Nc3nccs3)ccc21` [Compound 144], `COc1ccc(NCC(=O)N2CCc3cc(S(=O)(=O)Nc4nccs4)ccc32)cc1F` [Compound 184] is higher in IC50: less than 2 µM for the first, greater than 5 µM for the second.

`CC(Oc1ccccc1Cl)C(=O)N1CCc2cc(S(=O)(=O)Nc3nccs3)ccc21` (stereo not drawn) [Compound 148] and `CC(Oc1ccccc1Cl)C(=O)N1CCc2cc(S(=O)(=O)Nc3ncns3)ccc21` (stereo not drawn) [Compound 185] cannot be ordered by IC50: less than 2 µM for the first, less than 2 µM for the second.

Going from `O=C(COc1ccccc1Cl)N1CCc2ccc(S(=O)(=O)Nc3nccs3)cc2C1` [Compound 149] to `CC(C)(C)c1ccc(OCC(=O)N2CCc3ccc(S(=O)(=O)Nc4nccs4)cc3C2)cc1` [Compound 150], the IC50 rises from less than 2 µM to greater than 5 µM.

`O=C(c1ccc(Cl)cc1Cl)N1CCc2ccc(S(=O)(=O)Nc3nccs3)cc2C1` [Compound 151] and `CC(Oc1cccc(Cl)c1)C(=O)N1CCc2ccc(S(=O)(=O)Nc3nccs3)cc2C1` (stereo not drawn) [Compound 174] fall in the same range of IC50: 2 to 5 µM for the first, 2 to 5 µM for the second.

Going from `Cc1nnc(NS(=O)(=O)c2ccc3c(c2)CN(C(=O)COc2ccnc4c(C(F)(F)F)cccc24)CC3)s1` [Compound 152] to `Cc1ccc(OCC(=O)N2Cc3ccc(S(=O)(=O)Nc4nccs4)cc3C2)cc1C` [Compound 190], the IC50 falls from greater than 5 µM to less than 2 µM.

`O=C(COc1ccc(F)c(Cl)c1)N1CCCc2cc(S(=O)(=O)Nc3nccs3)ccc21` [Compound 154] and `O=C(CCCOc1ccc(Cl)cc1Cl)N1CCCc2cc(S(=O)(=O)Nc3nccs3)ccc21` [Compound 180] cannot be ordered by IC50: less than 2 µM for the first, less than 2 µM for the second.

Compared with `CC(C)(C)c1ccc(OCC(=O)N2Cc3ccc(S(=O)(=O)Nc4nccs4)cc3C2)cc1` [Compound 155], `COc1ccc(CC(=O)N2Cc3ccc(S(=O)(=O)Nc4nccs4)cc3C2)cc1` [Compound 193] is higher in IC50: less than 2 µM for the first, 2 to 5 µM for the second. The first is the more potent here.

First: O=C(CCCOc1ccc(Cl)cc1Cl)N1CCc2cc(S(=O)(=O)Nc3ncccn3)ccc21 [Compound 156]
Second: COc1cccc(CCC(=O)N2CCc3cc(S(=O)(=O)Nc4nccs4)ccc32)c1 [Compound 192]
The IC50 of the first is higher: greater than 5 µM for the first, less than 2 µM for the second.

First: O=S(=O)(Nc1nccs1)c1ccc2c(c1)CCN2CCNc1nc2ccccc2s1 [Compound 157]
Second: O=C(Oc1ccccc1)N1CCc2cc(S(=O)(=O)Nc3nccs3)ccc21 [Compound 163]
The IC50 of the first is higher: greater than 5 µM for the first, 2 to 5 µM for the second. The second is the more potent here.

First: COc1ccc(CCC(=O)N2CCc3cc(S(=O)(=O)Nc4nccs4)ccc32)cc1 [Compound 159]
Second: COc1ccc(CC(=O)N2CCc3ccc(S(=O)(=O)Nc4nccs4)cc3C2)cc1 [Compound 168]
The IC50 of the first is lower: less than 2 µM for the first, greater than 5 µM for the second.

`CC(Oc1ccccc1Cl)C(=O)n1ccc2cc(S(=O)(=O)Nc3nccs3)ccc21` (stereo not drawn) [Compound 160] and `O=C(c1ccccc1C(F)(F)F)n1ccc2cc(S(=O)(=O)Nc3nccs3)ccc21` [Compound 176] fall in the same range of IC50: 2 to 5 µM for the first, 2 to 5 µM for the second.

`O=C(CNC1CCC1)N1CCc2cc(S(=O)(=O)Nc3nccs3)ccc21` [Compound 161] and `O=C(CNCc1ccncc1)N1CCc2cc(S(=O)(=O)Nc3nccs3)ccc21` [Compound 171] cannot be ordered by IC50: greater than 5 µM for the first, greater than 5 µM for the second.

`O=C(c1cc(Cl)ccc1Cl)n1ccc2cc(S(=O)(=O)Nc3nccs3)ccc21` [Compound 162] and `O=C(COc1ccc(Cl)cc1Cl)n1ccc2cc(S(=O)(=O)Nc3nccs3)ccc21` [Compound 183] fall in the same range of IC50: 2 to 5 µM for the first, 2 to 5 µM for the second.

`C[C@@H](C(=O)N1Cc2ccc(S(=O)(=O)Nc3ncns3)cc2C1)n1ccc2ccccc21` [Compound 164] and `O=C(CCn1ccc2cc(Cl)ccc21)N1Cc2ccc(S(=O)(=O)Nc3nccs3)cc2C1` [Compound 177] cannot be ordered by IC50: less than 2 µM for the first, less than 2 µM for the second.

Compared with `COc1cccc(NCC(=O)N2CCc3cc(S(=O)(=O)Nc4nccs4)ccc32)c1` [Compound 165], `COc1cc(C(=O)N2CCc3cc(S(=O)(=O)Nc4nccs4)ccc32)ccc1C` [Compound 178] is lower in IC50: greater than 5 µM for the first, 2 to 5 µM for the second. The second is the more potent here.

`O=C(COc1ccc(OC(F)(F)F)cc1)N1CCc2cc(S(=O)(=O)Nc3ncns3)ccc21` [Compound 167] and `Cc1ccc(C(=O)N2CCc3cc(S(=O)(=O)Nc4ncns4)ccc32)cc1Cl` [Compound 179] cannot be ordered by IC50: less than 2 µM for the first, less than 2 µM for the second.

`O=C(CN1CCC(F)(F)C1)N1CCCc2cc(S(=O)(=O)Nc3nccs3)ccc21` [Compound 169] and `O=C(CN1CCC(F)(F)CC1)N1CCCc2cc(S(=O)(=O)Nc3nccs3)ccc21` [Compound 175] cannot be ordered by IC50: greater than 5 µM for the first, greater than 5 µM for the second.

First: CC(C)(Oc1ccc(Cl)cc1)C(=O)n1ccc2cc(S(=O)(=O)Nc3nccs3)ccc21 [Compound 173]
Second: COc1ccc(CCC(=O)n2ccc3cc(S(=O)(=O)Nc4nccs4)ccc32)cc1 [Compound 187]
The IC50 of the first is higher: 2 to 5 µM for the first, less than 2 µM for the second.

First: O=C(CCc1ccccc1)n1ccc2cc(S(=O)(=O)Nc3nccs3)ccc21 [Compound 189]
Second: Cc1ccc(C(=O)n2ccc3cc(S(=O)(=O)Nc4nccs4)ccc32)cc1Cl [Compound 191]
The IC50 of the first is lower: less than 2 µM for the first, greater than 5 µM for the second. The first is the more potent here.
